Experimental data published in publication PMC10779143, “Collagen-like Osteoclast-Associated Receptor (OSCAR)-Binding Motifs Show a Co-Stimulatory Effect on Osteoclastogenesis in a Peptide Hydrogel System” (International Journal of Molecular Sciences, 2023).
“Also recorded” adds a separate entry of the source. Where a SMILES comes first, the peptide text is derived from it. [ ]: non-standard residue; d: D form. Hyp = O=C(O)[C@@H]1C[C@@H](O)CN1

Experiments:
[1] = CD analysis of secondary structure (collagen triple helix) and refolding; assay type: physicochemical; details: CD Buffer pH 7.4; for Triple helical features (positive ellipticity band) at 70 °C: CD at 70 °C; for Secondary structure by CD: CD spectra 190-260 nm at 10 °C, 0.5 mg/mL peptides, 0.2 mg/mL OCol1; for Refolding of the triple helix after denaturation: cooling from 70 °C to 10 °C, approximately 30 min, 210 µM peptides, 12 µM OCol1
Description: Secondary structures of OP1_Hyp, OP1_Pro, and OCol1 were analysed by circular dichroism (CD) spectroscopy using a Jasco® J-810 spectropolarimeter (UCI, Irvine, CA, USA) equipped with a Peltier temperature controller. OP1_Hyp and OP1_Pro were resuspended up to a concentration of 0.5 mg/mL in a CD transparent buffer (10 mM K2HPO4, 10 mM KH2PO4, 150 mM KF, pH 7.4, CD Buffer) [15] and kept for 24 h at 4 °C to allow for the formation of the collagen triple helical structure. OCol1 was exchanged to CD Buffer using a PD 10 disposable desalting column (GE17-0851-01, Merck, Feltham, UK). Briefly, the column was equilibrated with five column volumes of CD Buffer before the addition of OCol1 to the storage buffer. After flow-through collection, 0.5 mL fractions were collected into 1.5 mL Eppendorf tubes. The OCol1 elution fractions were quickly analysed by CD, and the one with the highest concentration (0.2 mg/mL) was used. CD spectra were measured between 190 nm and 260 nm at 10 °C using a 1 mm path-length CD-matched quartz cuvette (Starna Scientific, Ilford, UK). Data were collected every 0.2 nm with a 1 nm bandwidth. Spectral baselines were corrected by subtracting the spectrum of CD Buffer (blank) collected under the same conditions. Additionally, the thermal stability of OP1_Hyp, OP1_Pro, and OCol1 was analysed. Thermal transition profiles were recorded between 10 °C and 60 °C (OP1_Hyp and OP1_Pro) or 70 °C (OCol1) at 222 nm with a data pitch of 0.2 °C, a bandwidth of 1 nm, a detector response time of 32 s, and a temperature slope of 1 °C/min. Samples were cooled back to 10 °C after the different transitions had been completed, and final spectra were recorded at that temperature. Ellipticity in millidegrees was converted to mean residue molar ellipticity Θ (degree cm^2 dmol^−1) by normalising for the number of residues on each peptide or protein [23].

[2] = target: T1, recombinant human OSCAR-Fc chimera (Homo sapiens, UniProt Q8IYS5); assay: Surface plasmon resonance (SPR) analysis of the peptide-OSCAR interaction; assay type: binding; details: 25 °C; for Association/dissociation behaviour in sensorgrams: immobilised human OSCAR-Fc, pH 7.4
T1 construct: extracellular region of human OSCAR (Asp19-Asn229, NP_573399); purchased R&D Systems, Bio-Techne 9955-OS
T1 sequence (Q8IYS5 19-229 isoform Q8IYS5-2): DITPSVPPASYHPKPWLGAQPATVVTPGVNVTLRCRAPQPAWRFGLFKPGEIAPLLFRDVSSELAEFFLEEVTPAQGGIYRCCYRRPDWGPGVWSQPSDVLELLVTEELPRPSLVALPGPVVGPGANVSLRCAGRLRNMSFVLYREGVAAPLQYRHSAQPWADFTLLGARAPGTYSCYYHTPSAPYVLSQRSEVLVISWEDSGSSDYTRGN
Description: Surface plasmon resonance (SPR) was used to determine the binding affinity between OP1_Hyp or OP1_Pro and a recombinant human OSCAR-Fc chimera made from the extracellular region of human OSCAR (Asp19-Asn229, NP_573399) and the Fc domain from human IgG1 (Pro100-Lys330, P01857-1). A kinetic analysis was performed with immobilised OSCAR-Fc, OP1_Hyp, and OP1_Pro as analytes. A Langmuir 1:1 model was used to perform the kinetic analysis. This model is based on a simple interaction between ligand and analytes where a 1:1 molar complex is formed at equilibrium, i.e., A + B ⇄ AB. The kinetics of the reaction are determined by the association and dissociation rate constants (ka and kd, respectively), with an overall affinity constant (KD) given by KD = kd/ka.
SPR analyses were carried out on a Biacore™ T200 (Cytiva) using a Series S CM5 sensor chip with an assay running buffer of 10 mM PBS, 150 mM NaCl, 0.05% Tween20, pH 7.4. Reference and active flow cells were activated by injecting 70 μL of a 1:1 mixture of 0.2 M 1-ethyl-3-(3-dimethylaminopropyl)-carbodiimide (EDC) and 0.1 M N-hydroxysuccinimide (NHS) at 10 µL/min. Recombinant human OSCAR-Fc chimera (R&D Systems, Bio-Techne, Minneapolis, MN, USA, 9955-OS) was immobilised onto the active flow cell at 20 µg/mL in 10 mM sodium acetate pH 5.0 at 10 µL/min to 6880 response units (RU). Reference and active flow cells were blocked using 1 M ethanolamine, pH 8, at a flow rate of 10 µL/min. For kinetic and equilibrium binding analysis, OP1_Hyp and OP1_Pro peptides were flowed at 25 °C active and reference flow cells at 30 µL/min in assay running buffer at peptide concentrations of 5000—0 nM (OP1_Hyp) and 40,000—0 nM (OP1_Pro), using a dilution series. Surfaces were regenerated with a 10 s injection of 0.1 M glycine, pH 2.0. Data sets were analysed with the built-in BiaEvaluation software (version 4.1). The models used for analysis were the Langmuir 1:1 binding model and the steady-state analysis model. Data are presented as the mean and standard error of the mean (SEM) of triplicate runs.

Raw 264.7 cells [3] = assay: TRAP staining / osteoclast morphology of Raw 264.7 cells on peptide-coated tissue culture plastic; assay type: cell-based; details: for Osteoclast features / TRAP staining, 10 ng/mL hRANKL / Osteoclast features / TRAP staining, 100 ng/mL hRANKL / Differentiation without hRANKL (TRAP staining): 5 days on coated TCP; for Osteoclast features / TRAP staining, 10 ng/mL hRANKL: 10 ng/mL hRANKL (suboptimal); for Osteoclast features / TRAP staining, 100 ng/mL hRANKL: peptide effect masked by high hRANKL; for Differentiation without hRANKL (TRAP staining): no hRANKL added; for Overall effect on differentiation of Raw 264.7 cells on coated TCP: used as substrate on TCP
Description: (§1) Raw 264.7 cells were cultured and passaged as previously described. Cell adhesion to OP1_Hyp and OP1_Pro was assessed as shown by Barrow et al.. Briefly, 48-well plates were coated with 10 µg/mL of OSCAR-binding peptides overnight at 4 °C. The excess peptide was then removed by washing with PBS before adding 1% BSA to block non-specific binding sites for 1 h at 25 °C. Raw 264.7 cells were then resuspended at a concentration of 2 × 10^5 cells/mL and added to the well. Cells were cultured with different concentrations of human RANKL (hRANKL) (catalogue number: 310-01 from Peprotech, London, UK) (0–100 ng/mL) for up to 5 days to assess the contribution of the OSCAR-binding peptides OP1_Hyp and OP1_Pro to the differentiation of Raw 264.7 cells to mature OCs.
After 5 days of post-culture, Raw 264.7 cells were fixed in 4% PFA for 15 min at room temperature. TRAP was stained following the manufacturer’s protocol and evaluated by light microscopy (ThermoFisher, Swindon, UK). Multinucleated TRAP+ cells containing more than three nuclei were scored as mature OCs.

[4] = tested on: TRAP gene expression, Raw 264.7 cells; assay: qRT-PCR TRAP gene expression, Raw 264.7 cells on peptide-coated TCP; assay type: cell-based; details: for TRAP expression, 100 ng/mL hRANKL: 5 days vs day 1, relative to GAPDH; for TRAP expression, 100 ng/mL hRANKL / TRAP expression, 0-1 ng/mL hRANKL: n = 3; for TRAP expression, 10 ng/mL hRANKL: 5 days, n = 3, lower than with 100 ng/mL hRANKL; for TRAP expression, 10 ng/mL hRANKL / TRAP expression, 0-1 ng/mL hRANKL: relative to GAPDH; for TRAP expression, 0-1 ng/mL hRANKL: five days
Description: as §1
(§2) Gene expression of OC markers was evaluated as previously described. A StepOne™ Real-Time PCR System (Applied Biosystems, Warrington, UK) was used, with TaqMan probes and a universal PCR Master Mix (Life Technologies, Carlsbad, CA, USA, 4304437) in a total volume of 10 µL. The TaqMan probes for TRAP and OSCAR were Mm00475698_m1 and Mm01338227_g1, respectively. Data were analysed using the 2^−∆Ct method and normalised to the endogenous housekeeping gene GAPDH (Mm99999915_g1). Experiments were performed in triplicate.

[5] = tested on: OSCAR gene expression, Raw 264.7 cells; assay: qRT-PCR OSCAR gene expression, Raw 264.7 cells on peptide-coated TCP; assay type: cell-based; details: n = 3; for OSCAR expression, 100 ng/mL hRANKL: 5 days vs day 1, relative to GAPDH; for OSCAR expression, 10 ng/mL hRANKL: 5 days; for OSCAR expression, 10 ng/mL hRANKL / OSCAR expression, 0-1 ng/mL hRANKL: relative to GAPDH; for OSCAR expression, 0-1 ng/mL hRANKL: five days
Description: as §1, §2

Raw 264.7 cells [6] = assay: F-actin staining / osteoclast-like morphology and differentiation of Raw 264.7 cells on hydrogels; assay type: cell-based; details: 10 ng/mL hRANKL
[7] = tested on: TRAP gene expression, Raw 264.7 cells; assay: qRT-PCR TRAP gene expression, Raw 264.7 cells on hydrogels; assay type: cell-based; details: incorporated in FF/S/RGDH hydrogel, 10 ng/mL hRANKL
Text: (§3) Fmoc-FF/S (Fmoc-diphenylalanine/serine, 1:1 molar ratio) and Fmoc-FF/S/RGD (1:0.5:0.5 molar ratio) peptides were provided by Biogelx Ltd., Edinburgh, UK. Hydroxyapatite (Hap) nanopowder (formula: Ca10(PO4)6(OH)2, with average particle size <200 nm) was purchased from Sigma-Aldrich (Dorset, UK, product code: 677418) and used as received. Hydrogels made up of Fmoc-based peptides and hydroxyapatite were fabricated as described previously. Hap-decorated Fmoc-FF/S/RGD hydrogels (FF/S/RGDH) were tested in combination with OP1_Hyp, OP1_Pro, and OCol1 to evaluate the contribution of OSCAR as a co-stimulatory pathway for OCP differentiation. […]
(§4) The day after hydrogel fabrication, 2 mL of Raw 264.7 cells (4 × 10^5 cells/mL) were seeded on top of FF/S/RGDH hydrogels containing the collagen-like OSCAR-binding peptides (OP1_Hyp, OP1_Pro) or recombinant collagen-like protein (OCol1). […] After 7 days of culture, cell viability on the peptide- or protein-modified FF/S/RGDH hydrogels was evaluated by using a LIVE/DEAD assay (ThermoFisher Scientific, Swindon, UK). […] After 30 min of incubation, cells were washed 3 times in PBS and imaged using a Nikon Eclipse 50i fluorescence microscope (Tokyo, Japan) (emission wavelengths: green channel for live cells: 515 nm; red channel for dead cells: 635 nm; excitation wavelength: 495 nm). […]
(§5) Gene expression of OC markers was evaluated as previously described. […]

[8] = tested on: OSCAR gene expression, Raw 264.7 cells; assay: qRT-PCR OSCAR gene expression, Raw 264.7 cells on hydrogels; assay type: cell-based; details: 10 ng/mL hRANKL, relative to GAPDH, n = 3
Text: as §3, §4, §5

Row | Retention of OSCAR binding on replacing Hyp with Pro ([2]; Hyp at position 3 replaced with Pro) | Compound | Triple helical features (positive ellipticity band) at 70 °C [1] | Secondary structure by CD [1] | Refolding of the triple helix after denaturation [1] | Association/dissociation behaviour in sensorgrams [2] | Osteoclast features / TRAP staining, 10 ng/mL hRANKL (Raw 264.7 cells [3]) | Osteoclast features / TRAP staining, 100 ng/mL hRANKL (Raw 264.7 cells [3]) | Differentiation without hRANKL (TRAP staining) (Raw 264.7 cells [3]) | OC differentiation effect, lower suboptimal hRANKL, comparison of peptides (Raw 264.7 cells [3]; coated TCP, lower, suboptimal hRANKL) | Overall effect on differentiation of Raw 264.7 cells on coated TCP (Raw 264.7 cells [3]) | TRAP expression, 100 ng/mL hRANKL [4] | TRAP expression, 10 ng/mL hRANKL [4] | TRAP expression, 0-1 ng/mL hRANKL [4] | OSCAR expression, 100 ng/mL hRANKL [5] | OSCAR expression, 10 ng/mL hRANKL [5] | OSCAR expression, 0-1 ng/mL hRANKL [5] | Differentiation of Raw 264.7 cells to OCs on collagen-modified hydrogels (Raw 264.7 cells [6]; 7 days, incorporated in FF/S/RGDH hydrogel) | OC-like features, improvement vs unmodified hydrogels (Raw 264.7 cells [6]; hydrogels) | TRAP expression, day 3 to day 7 (comparison with literature) [7] | OSCAR expression change, day 3 to day 7 [8]
1 |  | CC(=O)NCC(=O)N1CCC[C@H]1C(=O)N1C[C@H](O)C[C@H]1C(=O)NCC(=O)N1CCC[C@H]1C(=O)N1C[C@H](O)C[C@H]1C(=O)NCC(=O)N1CCC[C@H]1C(=O)N1C[C@H](O)C[C@H]1C(=O)NCC(=O)N[C@@H](C)C(=O)N1C[C@H](O)C[C@H]1C(=O)NCC(=O)N1CCC[C@H]1C(=O)N[C@@H](C)C(=O)NCC(=O)N[C@@H](Cc1ccccc1)C(=O)N[C@@H](C)C(=O)NCC(=O)N1CCC[C@H]1C(=O)N1C[C@H](O)C[C@H]1C(=O)NCC(=O)N1CCC[C@H]1C(=O)N1C[C@H](O)C[C@H]1C(=O)NCC(=O)N1CCC[C@H]1C(=O)N1C[C@H](O)C[C@H]1C(N)=O [OP1_Hyp] (Ac-GP[Hyp]GP[Hyp]GP[Hyp]GA[Hyp]GPAGFAGP[Hyp]GP[Hyp]GP[Hyp]-NH2) | disappeared from the CD spectra | a band of positive ellipticity with a maximum at ~220 nm and a deep band of negative ellipticity with a minimum at ~198 nm, previously associated with the typical conformation of the collagen triple helix | partial recovery of the collagen structure | a progressive binding phase to OSCAR with a slow release at all the concentrations tested | more cells showing OC-like features such as multinucleation; also recorded: still showed signs of osteoclastogenesis | typical OC features | not able to trigger any differentiation on their own | much more evident for OP1_Hyp compared to OP1_Pro | positive effect on differentiation | significantly higher after 5 days | TRAP expression was lower | either expressed at lower amounts or did not change significantly after five days of culture | significantly higher compared to day 1 | still significantly higher | either expressed at lower amounts or did not change significantly after five days of culture | the effect was more evident with OP1_Hyp; also recorded: positive effect on osteoclastogenesis | greater bioactivity (i.e., higher nuclei/cell distribution, increased cell diameter) | increased significantly between day 3 and day 7 of culture | increased significantly between day 3 and day 7 of culture
2 | OSCAR binding is not abolished | Ac-GPOGPOGPOGAPGPAGFAGPOGPOGPO-NH2 [OP1_Pro] | disappeared from the CD spectra | a band of positive ellipticity with a maximum at ~220 nm and a deep band of negative ellipticity with a minimum at ~198 nm, previously associated with the typical conformation of the collagen triple helix | partial recovery of the collagen structure | both association and dissociation phases occurred very quickly | still showed signs of osteoclastogenesis | typical OC features | not able to trigger any differentiation on their own |  | positive effect on differentiation | significantly higher after 5 days | TRAP expression was lower | either expressed at lower amounts or did not change significantly after five days of culture | significantly higher compared to day 1 | still significantly higher | either expressed at lower amounts or did not change significantly after five days of culture |  |  |  | 
